Assay results from US6635622B2, “Glycolipid derivative” (Kotobuki Pharmaceutical Co., Ltd., priority 2000, dated 2003).

Columns and labels:
[1] = system: pancreatic lymphocyte of mouse; experiment: Lymphocyte mixed culture reaction (3H-thymidine uptake, DNA synthesis); assay type: cell-based, BALB/C mouse; conditions: concentration 1 ng/mL; cultured 3 days, 3H-TdR uptake 6 hours
Protocol: Experiment 1: Lymphocyte mixed culture reaction.
The pancreatic cells of BALB/C mouse were regulated to a concentration of 2×10^6 cells/ml with a culture medium of 10% FCS RPMI 1640, respectively. These cells (100 ul/well) and a sample (10 ul/well) were plated in a 96 well round-bottomed plate and cultured for 3 days under the condition of 37° C. and 5% CO2. Then, 3H-thymidine (3H-TdR) was added in a dose of 0.5 uCi/well. After 6 hours, the cells were harvested and subjected to the measurement of the uptake of 3H-TdR by a liquid scintillation counter. Thus, the DNA synthesis of pancreatic lymphocyte of mouse […].

B16 mouse melanoma cells = experiment: Tumor metastasis inhibitory activity against B16 mouse melanoma (lung nodules); assay type: in vivo, C57BL/6 mouse; conditions: p.o., lung surface nodules 14 days after B16 injection, vs control

| SMILES | Increase of DNA synthesis (%) [1] [%] | Inhibition of metastasis (%) (B16 mouse melanoma cells; dose 0.001 mg/kg) | Inhibition of metastasis (%) (B16 mouse melanoma cells; dose 1 mg/kg) |
| --- | --- | --- | --- |
| CCCCCCCCCCCCCCCCCCCCCCCCCC(=O)NC(CC[C@H]1OC(CO)[C@H](O)C(O)C1O)C(O)C(O)CCCCCCCCCCCCCC (stereo partly drawn) [Compound 1, (3′S,4′S,5′R)-3′-N-Hexacosanoylamino-4′,5′-dihydroxy-nonadecane-α-C-D-galactopyranoside] | 54.6 | 65.3 |  |
| CCCCCCCCCCCCCCCCCCCCCCCCCC(=O)NC(CS[C@H]1OC(CO)[C@H](O)C(O)C1O)C(O)C(O)CCCCCCCCCCCCCC (stereo partly drawn) [Compound 8, (2′S,3′S,4′R)-3′,4′-Dihydroxy-2′-N-hexacosanoylamino-octadecane-1′-thio-yl-α-C-D-galactopyranoside] | 35.4 |  | 80.8 |
